Where two headings read alike, the source gives them in different places. Positions of bridges follow the written chain, without caps; N, C: chain ends. Non-standard residues stand in square brackets, D forms with d. Residues, ends and D or L forms follow the SMILES beside them. Nle = CCCC[C@H](N)C(=O)O
Tests used:
CD3+ lymphocytes = assay: cells; type: cell-based, human; settings: normalized to untreated control, mean ± SEM of 4-6 experiments
Experimental: 1 Transwell-based migration assay to study lymphocyte transendothelial migration. (A) The general principle of the transwell migration assay is depicted. Endothelial cells (EC) are seeded in transwell inserts and are incubated for 2 days to form an EC monolayer. On the day before the assay, the ECs are cytokine-stimulated to induce the expression of adhesion molecules. In the migration assay, human peripheral blood mononuclear cells (PBMC) are placed into the donor compartment of the transwell setup. After 4 h of incubation time, the migrated cells are harvested from the receiver compartment, stained with fluorescent antibodies and counted using flow cytometry. (B) PBMCs were preincubated with S1P for 1.5 h and then transferred into the donor compartment on top of the EC monolayer. […] Data are shown as mean ± SD of 3 to 5 independent experiments.
(§1) Transwell migration assays were performed similarly as published previously. HMEC-1 cells were seeded at a density of 75,000 cells per well in transwell inserts. Three days after cell seeding, the medium was changed, and the cells were stimulated with 100 ng/mL TNF-α and 20 ng/mL IFN-γ for 16–18 h. On the day of the assay, cells were washed with migration medium (serum-free RPMI medium supplemented with 0.1% BSA) to remove residual cytokines and starved for at least 1 h at 37 °C in migration medium. PBMC were starved for at least 1.5 h in migration medium before addition to the EC. For S1P and lifitegrast-treated samples, the PBMC were preincubated for at least 1.5 h at 37 °C with the ligands before addition to the EC. Pepitem and other peptides were added onto the EC monolayer and preincubated for 15–30 min at 37 °C before the addition of the PBMC. 200,000 PBMC per well were added directly on top of the EC prestimulated with pepitem or other peptides to reach a final volume of 150 μL in the donor compartments. The receiver compartments of the wells were filled with 600 μL RPMI with 20% FBS. After 4 h of migration at 37 °C, the receiver compartment with the migrated cells was collected. The migrated cells were stained with the indicated antibodies: CD3-APC (clone: OKT3, lot: B400127), CD4-PE (clone: OKT4. lot: B379180), CD8-FITC (clone: HIT8a, lot: B370193) from Biolegend and CD3-VioGreen (clone: REA613, lot: 5240502518), CD45RO-FITC (clone: REA611, lot: 5240502519), CD4-PerCP-Vio700 (clone: REA623, lot: 5240506702), CXCR3 PE-Vio615 (clone: REA232, lot: 5240506722), CD196-APC (clone: REA190, lot: 5240506717), CD8-APC-Vio770 (clone: REA734, lot: 5240303993) and CD45RO-PEVio616 (clone: REA611, lot: 5231102514) from Miltenyi Biotec (Bergisch Gladbach, Germany) and counted using precision counting beads (Biolegend) on a CytoflexS flow cytometer (BeckmanCoulter). Data was analyzed using CytExpert (Version 2.4). T cells were gated as CD3^+ cells, T cell subsets were gated as CD4^+ (CD3^+, CD4^+), CD8^+ (CD3^+, CD8^+), memory CD4^+ (CD3^+, CD4^+, CD45RO^+), memory CD8^+ (CD3^+, CD8^+, CD45RO^+) and Th1 cells (CD3^+, CD4^+, CXCR3^+, CCR6^–).
(§2) Data were analyzed using GraphPad Prism software. EC50 values were calculated by three-parameter nonlinear regression analysis. For this, the data points were normalized to the number of migrated cells in untreated (buffer) control samples (100%), and the regression was fitted with the top constraint to 100 and the slope fixed to 1. Statistical significance is indicated in graphs as n.s. not significant, * p < 0.05; ** p < 0.01; *** p < 0.001. The statistical tests used are indicated in the respective figure captions.

[1] = test system: CD4+ lymphocytes (CD3+, CD4+); type: cell-based, human; settings: normalized to untreated control, mean ± SEM of 4-6 experiments
Experimental: as §1, §2

[2] = test system: CD8+ lymphocytes (CD3+, CD8+); type: cell-based, human; settings: normalized to untreated control, mean ± SEM of 4-6 experiments
Experimental: as §1, §2

[3] = test system: memory CD4+ cells (CD3+, CD4+, CD45RO+); type: cell-based, human; settings: normalized to untreated control, mean ± SEM of 4-6 experiments
Experimental: as §1, §2

[4] = test system: memory CD8+ cells (CD3+, CD8+, CD45RO+); type: cell-based, human; settings: normalized to untreated control, mean ± SEM of 4-6 experiments
Experimental: as §1, §2

Serum stability assay = type: in vitro ADME; settings: human serum of healthy donors, lipids removed by centrifugation, 37 °C, peptide 30-60 μM from 10-fold stock in PBS, followed over 48 h, urea/TFA quench, analytical RP-HPLC peak area vs time 0, one-phase decay fit; mean ± SD, n = 2 (pepitem n = 5); read-out: Serum t 1/2 (converted)
Experimental: Stability of peptides in human serum was measured similarly to that previously described. In short, fresh blood from healthy donors was collected in serum collection tubes (Clot Activator Tube, Becton Dickinson, Plymouth, United Kingdom, […]) and incubated at 4 °C for 2 h to allow blood clotting. The serum was separated by centrifugation at 1000 × g for 10 min. To remove lipids from the serum, an additional centrifugation step was performed at 15,000 × g for 15 min at 4 °C, after which the serum was used for the stability assays. For this, the serum was prewarmed for 10 min at 37 °C before the addition of the test compounds. Peptides were prepared at a 10-fold concentration in PBS and diluted to a final concentration between 60 and 30 μM with the serum. The serum-peptide reaction mix was incubated at 37 °C, and 40 μL aliquots were taken at the indicated time points. To stop the reaction, samples were mixed with 40 μL of 6 M urea for 10 min on ice, followed by precipitation of serum proteins by the addition of 40 μL of 20% TFA and incubation for at least 10 min on ice. The precipitate was pelleted at 15,000 × g for 15 min, and 90 μL of the supernatant was freeze-dried. The dry material was resuspended in HPLC solvent A (0.1% TFA in ddH2O). Peptide quantification was performed using analytical HPLC. The remaining peptide relative to the starting point (time point 0) was calculated by peak integration to determine the area under the peak at the designated time points and further calculated in comparison to time point 0 min, which was set as 100%. To calculate the half-life of the peptides in human serum, data points were fitted with a one-phase decay equation.

Structure (SMILES): CCCC[C@@H]1NC(=O)[C@H](C(C)C)NC(=O)[C@H](CCCCN)NC(=O)[C@@H](NC(=O)[C@H](CCC(N)=O)NC(=O)[C@H](CCC(=O)O)NC(C)=O)CSSC[C@@H](C(=O)N[C@@H](CCC(=O)O)C(=O)N[C@@H](CCCCN)C(N)=O)NC(=O)[C@H](CC(N)=O)NC(=O)[C@H](CC(=O)O)NC(=O)[C@H](CC(C)C)NC(=O)[C@@H]2CSSC[C@H](NC1=O)C(=O)N[C@@H](Cc1ccc(O)cc1)C(=O)N[C@@H](CCC(N)=O)C(=O)NCC(=O)N[C@@H](C)C(=O)N[C@@H](CCC(=O)O)C(=O)N[C@@H](CC(C)C)C(=O)N[C@@H](CO)C(=O)N1CCC[C@H]1C(=O)N[C@@H](CCC(=O)O)C(=O)N[C@@H](CC(C)C)C(=O)N[C@@H](CC(C)C)C(=O)N[C@@H](CCCNC(=N)N)C(=O)N[C@@H](CCCNC(=N)N)C(=O)N2 [VhTI-pep 4] (Ac-EQCKV[Nle]CYQGAELSPELLRRCLDNCEK-NH2; disulfide 3-25, 7-21)
- % Inhibition of cell migration compared to control, CD3+ (CD3+ lymphocytes; 0.1 μM): 16.7 ± 11.0%
- % Inhibition of cell migration compared to control, CD3+ (CD3+ lymphocytes; 1 μM): 24.4 ± 8.0%
- % Inhibition of cell migration compared to control, CD4+ ([1]; 0.1 μM): 16.5 ± 7.3%
- % Inhibition of cell migration compared to control, CD4+ ([1]; 1 μM): 24.5 ± 5.9%
- % Inhibition of cell migration compared to control, CD8+ ([2]; 0.1 μM): 19.5 ± 20.2%
- % Inhibition of cell migration compared to control, CD8+ ([2]; 1 μM): 26.0 ± 10.7%
- % Inhibition of cell migration compared to control, Memory CD4+ ([3]; 0.1 μM): 12.9 ± 11.0%
- % Inhibition of cell migration compared to control, Memory CD4+ ([3]; 1 μM): 27.2 ± 7.8%
- % Inhibition of cell migration compared to control, Memory CD8+ ([4]; 0.1 μM): 27.9 ± 3.8%
- % Inhibition of cell migration compared to control, Memory CD8+ ([4]; 1 μM): 19.7 ± 7.9%
- half-life (Serum stability assay): > 48 h

Structure (SMILES): CCCC[C@@H]1NC(=O)[C@H](C(C)C)NC(=O)[C@H](CCCCN)NC(=O)[C@@H](NC(=O)[C@H](CCC(N)=O)NC(=O)[C@H](CCC(=O)O)NC(C)=O)CSSC[C@@H](C(=O)N[C@@H](CCC(=O)O)C(=O)N[C@@H](CCCCN)C(N)=O)NC(=O)[C@H](CC(N)=O)NC(=O)[C@H](CC(=O)O)NC(=O)[C@H](CC(C)C)NC(=O)[C@@H]2CSSC[C@H](NC1=O)C(=O)N[C@@H](Cc1ccc(O)cc1)C(=O)N[C@@H](CCC(=O)O)C(=O)N[C@@H](CCC(N)=O)C(=O)NCC(=O)N[C@@H](C)C(=O)N[C@@H](CC(C)C)C(=O)N[C@@H](CO)C(=O)N1CCC[C@H]1C(=O)N[C@@H](CCC(=O)O)C(=O)N[C@@H](CC(C)C)C(=O)N[C@@H](CC(C)C)C(=O)N[C@@H](CCCNC(=N)N)C(=O)N[C@@H](CCCNC(=N)N)C(=O)N2 [VhTI-pep 5] (Ac-EQCKV[Nle]CYEQGALSPELLRRCLDNCEK-NH2; disulfide 3-25, 7-21)
- % Inhibition of cell migration compared to control, CD3+ (CD3+ lymphocytes; 0.1 μM): 18.0 ± 6.2%
- % Inhibition of cell migration compared to control, CD3+ (CD3+ lymphocytes; 1 μM): 28.4 ± 7.4%
- % Inhibition of cell migration compared to control, CD4+ ([1]; 0.1 μM): 16.2 ± 7.7%
- % Inhibition of cell migration compared to control, CD4+ ([1]; 1 μM): 33.5 ± 5.7%
- % Inhibition of cell migration compared to control, CD8+ ([2]; 0.1 μM): 20.8 ± 6.8%
- % Inhibition of cell migration compared to control, CD8+ ([2]; 1 μM): 24.8 ± 12.8%
- % Inhibition of cell migration compared to control, Memory CD4+ ([3]; 0.1 μM): 11.5 ± 13.6%
- % Inhibition of cell migration compared to control, Memory CD4+ ([3]; 1 μM): 28.6 ± 8.8%
- % Inhibition of cell migration compared to control, Memory CD8+ ([4]; 0.1 μM): 4.7 ± 10.1%
- % Inhibition of cell migration compared to control, Memory CD8+ ([4]; 1 μM): 14.0 ± 13.4%
- half-life (Serum stability assay): > 48 h

Structure (SMILES): CC(=O)N[C@@H](CCC(=O)O)C(=O)N[C@@H](CCC(N)=O)C(=O)N[C@H]1CSSC[C@@H](C(=O)N[C@@H](CCC(=O)O)C(=O)N[C@@H](CCCCN)C(N)=O)NC(=O)[C@H](CC(N)=O)NC(=O)[C@H](CC(=O)O)NC(=O)[C@H](CC(C)C)NC(=O)[C@@H]2CSSC[C@H](NC(=O)[C@H]([C@@H](C)O)NC(=O)[C@H](C(C)C)NC(=O)[C@H](CO)NC1=O)C(=O)N[C@@H](CCC(=O)O)C(=O)N[C@@H](CCC(N)=O)C(=O)NCC(=O)N[C@@H](C)C(=O)N[C@@H](CCC(=O)O)C(=O)N[C@@H](CC(C)C)C(=O)N1CCC[C@H]1C(=O)N[C@@H](CO)C(=O)N[C@@H](CC(N)=O)C(=O)N[C@@H](CCC(=O)O)C(=O)N[C@@H](CCC(=O)O)C(=O)N[C@@H](CCCNC(=N)N)C(=O)N2 [VhTI-pep 6] (Ac-EQCSVTCEQGAELPSNEERCLDNCEK-NH2; disulfide 3-24, 7-20)
- % Inhibition of cell migration compared to control, CD3+ (CD3+ lymphocytes; 0.1 μM): 27.0 ± 9.7%
- % Inhibition of cell migration compared to control, CD3+ (CD3+ lymphocytes; 1 μM): 14.9 ± 11.6%
- % Inhibition of cell migration compared to control, CD4+ ([1]; 0.1 μM): 19.5 ± 9.9%
- % Inhibition of cell migration compared to control, CD4+ ([1]; 1 μM): 14.6 ± 8.7%
- % Inhibition of cell migration compared to control, CD8+ ([2]; 0.1 μM): 28.0 ± 8.2%
- % Inhibition of cell migration compared to control, CD8+ ([2]; 1 μM): 1.6 ± 7.8%
- % Inhibition of cell migration compared to control, Memory CD4+ ([3]; 0.1 μM): 24.6 ± 11.6%
- % Inhibition of cell migration compared to control, Memory CD4+ ([3]; 1 μM): 14.7 ± 7.6%
- % Inhibition of cell migration compared to control, Memory CD8+ ([4]; 0.1 μM): 23.2 ± 4.3%
- % Inhibition of cell migration compared to control, Memory CD8+ ([4]; 1 μM): 0.6 ± 6.1%
- half-life (Serum stability assay): 25.8 ± 9.7 h

From publication PMC12406255, “Engineering Peptide Modulators for T‑Cell Migration by Structural Scaffold Matching” (Journal of Medicinal Chemistry, 2025)
